Active and inactive are the calls of the source. The calls are words filed in the database; no cut-off is given here.
Columns and labels:
[1] = Antiproliferative activity against human K562 cells after 48 hrs by MTT assay; format: functional, cell-based; settings: K562, 48 h
[2] = Cytotoxicity against human WI38 cells assessed as reduction in cell viability after 48 hrs by MTT assay; format: toxicity, cell-based, WI-38
[3] = Antiproliferative activity against human HepG2 cells after 48 hrs by MTT assay; format: functional, cell-based; settings: HepG2, 48 h
[4] = Cell cycle arrest in human K562 cells assessed as accumulation at G1 phase at 0.49 uM after 24 hrs by propidium iodide staining based flow cytometry (reference value: 68.2%); format: functional
K562 [5] = assay: Induction of apoptosis in human K562 cells assessed as decrease in Bcl2 mRNA expression at antiproliferative IC50 by RT-PCR method; format: functional, cell-based
K562 [6] = assay: Induction of apoptosis in human K562 cells assessed as increase in caspase-3 protein expression at 0.49 uM after 24 hrs by ELISA; format: functional, cell-based
[7] = Cell cycle arrest in human K562 cells assessed as accumulation at S phase at 0.49 uM after 24 hrs by propidium iodide staining based flow cytometry (reference value: 21.7%); format: functional
K562 [8] = assay: Induction of apoptosis in human K562 cells assessed as increase in Bax mRNA expression at antiproliferative IC50 by RT-PCR method; format: functional, cell-based
K562 [9] = assay: Induction of apoptosis in human K562 cells at 0.49 uM after 24 hrs by propidium iodide staining based flow cytometry (reference value: 0.8%); format: functional
[10] = Cell cycle arrest in human K562 cells assessed as accumulation at G2 phase at 0.49 uM after 24 hrs by propidium iodide staining based flow cytometry (reference value: 9.3%); format: functional
K562 [11] = assay: Induction of apoptosis in human K562 cells assessed as increase in caspase-9 protein expression at 0.49 uM after 24 hrs by ELISA; format: functional, cell-based
HepG2 [12] = assay: Induction of apoptosis in human HepG2 cells assessed as increase in caspase-3 protein expression at 0.77 uM after 24 hrs by ELISA; format: functional, cell-based
HepG2 [13] = assay: Induction of apoptosis in human HepG2 cells assessed as increase in Bax mRNA expression at antiproliferative IC50 by RT-PCR method; format: functional, cell-based
HepG2 [14] = assay: Induction of apoptosis in human HepG2 cells assessed as decrease in Bcl2 mRNA expression at antiproliferative IC50 by RT-PCR method; format: functional, cell-based
HepG2 [15] = assay: Induction of apoptosis in human HepG2 cells assessed as increase in caspase-9 protein expression at 0.77 uM after 24 hrs by ELISA; format: functional, cell-based
K562 [16] = assay: Induction of apoptosis in human K562 cells assessed as increase in caspase-3 protein expression at 1.24 uM after 24 hrs by ELISA; format: functional, cell-based
K562 [17] = assay: Induction of apoptosis in human K562 cells assessed as increase in caspase-9 protein expression at 1.24 uM after 24 hrs by ELISA; format: functional, cell-based
K562 [18] = assay: Induction of apoptosis in human K562 cells assessed as increase in caspase-3 protein expression at 0.93 uM after 24 hrs by ELISA; format: functional, cell-based
K562 [19] = assay: Induction of apoptosis in human K562 cells assessed as increase in caspase-9 protein expression at 0.93 uM after 24 hrs by ELISA; format: functional, cell-based
HepG2 [20] = assay: Induction of apoptosis in human HepG2 cells assessed as increase in caspase-9 protein expression at 0.65 uM after 24 hrs by ELISA; format: functional, cell-based
[21] = Cell cycle arrest in human HepG2 cells assessed as accumulation at G2 phase at 0.65 uM after 24 hrs by propidium iodide staining based flow cytometry (reference value: 7.2%); format: functional
HepG2 [22] = assay: Induction of apoptosis in human HepG2 cells assessed as increase in caspase-3 protein expression at 0.65 uM after 24 hrs by ELISA; format: functional, cell-based
[23] = Cell cycle arrest in human HepG2 cells assessed as accumulation at S phase at 0.65 uM after 24 hrs by propidium iodide staining based flow cytometry (reference value: 25.2%); format: functional
[24] = Cell cycle arrest in human HepG2 cells assessed as accumulation at G1 phase at 0.65 uM after 24 hrs by propidium iodide staining based flow cytometry (reference value: 66.4%); format: functional
HepG2 [25] = assay: Induction of apoptosis in human HepG2 cells at 0.65 uM after 24 hrs by propidium iodide staining based flow cytometry (reference value: 1.2%); format: functional
K562 [26] = assay: Induction of apoptosis in human K562 cells assessed as increase in caspase-3 protein expression at 1.21 uM after 24 hrs by ELISA; format: functional, cell-based
K562 [27] = assay: Induction of apoptosis in human K562 cells assessed as increase in caspase-9 protein expression at 1.21 uM after 24 hrs by ELISA; format: functional, cell-based

Compound: CCOC(=O)c1ccc(-c2cc3cccc(OC)c3oc2=O)nc1C
- IC50 [1]: 8.82 µM
- IC50 at 48 h [2]: 67.7 µM
- IC50 [3]: 4.92 µM

Compound: COc1cccc2c1C(=O)c1c(O)c3c(c(O)c1C2=O)C[C@@](O)(C(=O)CO)C[C@@H]3O[C@H]1C[C@H](N)[C@H](O)[C@H](C)O1 [DOXORUBICIN]
- IC50 [1]: 2.96 µM
- IC50 [3]: 4.93 µM

Compound: COc1cc(/C=C(\C#N)C(=O)N/N=C(\C)c2cc3cccc(OC)c3oc2=O)cc(OC)c1OC
- Activity [4]: 44.6%
- Activity (K562 [5]): Active
- IC50 [1]: 0.49 µM
- Activity (K562 [6]): Active
- IC50 at 48 h [2]: 11.1 µM
- Activity [7]: 30.2%
- Activity (K562 [8]): Active
- Activity (K562 [9]): 9.7%
- Activity [10]: 15.5%
- Activity (K562 [11]): Active
- IC50 [3]: 1.57 µM

Compound: COc1ccc(/C=C(\C#N)C(=O)N/N=C(\C)c2cc3cccc(OC)c3oc2=O)cc1
- IC50 [1]: 3.96 µM
- IC50 at 48 h [2]: 48.4 µM
- Activity (HepG2 [12]): Active
- Activity (HepG2 [13]): Active
- Activity (HepG2 [14]): Active
- Activity (HepG2 [15]): Active
- IC50 [3]: 0.77 µM

Compound: COc1cccc2cc(-c3ccc(C(C)=O)c(C)n3)c(=O)oc12
- IC50 [1]: 1.24 µM
- IC50 at 48 h [2]: 354 µM
- Activity (K562 [16]): Active
- Activity (K562 [17]): Active
- IC50 [3]: 9.1 µM

Compound: COc1ccc(-c2cc(-c3cc4cccc(OC)c4oc3=O)nc(C#N)c2N)cc1OC
- IC50 [1]: 1.61 µM
- IC50 at 48 h [2]: 36.1 µM
- IC50 [3]: 3.2 µM

Compound: COc1ccc(C[C@@H](O)c2cc(OC)c(OC)c(OC)c2)cc1O [COMBRETASTATIN]
- IC50 [1]: 3.46 µM
- IC50 [3]: 3.4 µM

Compound: COc1cc(/C=C/C(=O)c2cc3cccc(OC)c3oc2=O)cc(OC)c1OC
- IC50 [1]: 1.36 µM
- IC50 at 48 h [2]: 9.55 µM
- IC50 [3]: 2.02 µM

Compound: COc1ccc(/C=C/C(=O)c2cc3cccc(OC)c3oc2=O)cc1OC
- Activity (K562 [18]): Active
- Activity (K562 [5]): Active
- Activity (K562 [19]): Active
- IC50 [1]: 0.93 µM
- IC50 at 48 h [2]: 33.1 µM
- Activity (K562 [8]): Active
- IC50 [3]: 0.82 µM

Compound: COc1ccc(/C=C/C(=O)c2cc3cccc(OC)c3oc2=O)cc1
- Activity (HepG2 [20]): Active
- Activity [21]: 19.1%
- IC50 [1]: 1.09 µM
- IC50 at 48 h [2]: 293 µM
- Activity (HepG2 [22]): Active
- Activity (HepG2 [13]): Active
- Activity [23]: 28.8%
- Activity [24]: 35.8%
- Activity (HepG2 [14]): Active
- IC50 [3]: 0.65 µM
- Activity (HepG2 [25]): 16.3%

Compound: COc1ccc(-c2cc(-c3cc4cccc(OC)c4oc3=O)nc(C#N)c2N)cc1
- IC50 [1]: 1.21 µM
- IC50 at 48 h [2]: 8.66 µM
- Activity (K562 [26]): Active
- Activity (K562 [27]): Active
- IC50 [3]: 1.25 µM

Compound: COc1ccc(/C=C(\C#N)C(=O)N/N=C(\C)c2cc3cccc(OC)c3oc2=O)cc1OC
- IC50 [1]: 8.71 µM
- IC50 at 48 h [2]: 3.3 µM
- IC50 [3]: 0.93 µM

From ChEMBL document CHEMBL3875211, “Design and synthesis of new coumarin hybrids and insight into their mode of antiproliferative action” (Bioorg Med Chem, 2017)
